Measurements reported in patent publication US10519169B2, “3-(1H-pyrrolo[2,3-C]pyridin-2-yl)-1 H-pyrazolo[4,3-B]pyridines and therapeutic uses thereof” (Samumed, LLC, priority 2015, dated 2019).

Experiments:
Assay type in all cases: cell-based
[1] = system: Wnt activity (Sp5-Luc reporter, TCF/LEF binding sites) in SW480 colon carcinoma cells; test: Wnt activity screening assay, Sp5-Luc reporter gene in SW480 cells; settings: Homo sapiens; for EC50: overnight incubation
Text: The screening assay for Wnt activity is described as follows. Reporter cell lines can be generated by stably transducing cancer cell lines (e.g., colon cancer) or primary cells (e.g., IEC-6 intestinal cells) with a lentiviral construct that includes a Wnt-responsive promoter driving expression of the firefly luciferase gene.
SW480 colon carcinoma cells were transduced with a lentiviral vector expressing luciferase with a human Sp5 promoter consisting of a sequence of eight TCF/LEF binding sites. SW480 cells stably expressing the Sp5-Luc reporter gene and a hygromycin resistance gene were selected by treatment with 150 μg/mL of hygromycin for 7 days. These stably transduced SW480 cells were expanded in cell culture and used for all further screening activities. Each compound was dissolved in DMSO as a 10 mM stock and used to prepare compound source plates. Serial dilution (1:3, 10-point dose-response curves starting from 10 μM) and compound transfer was performed using the ECHO 550 (Labcyte, Sunnyvale, Calif.) into 384-well white solid bottom assay plates (Greiner Bio-One) with appropriate DMSO backfill for a final DMSO concentration of 0.1%. For Sp5-Luc reporter gene assays, the cells were plated at 4,000 cells/well in 384-well plates with medium containing 1% fetal bovine serum and incubated overnight at 37° C. and 5% CO2. Following incubation, 20 μl of BrightGlo luminescence reagent (Promega) was added to each well of the 384-well assay plates. The plates were placed on an orbital shaker for 2 min and then luminescence was quantified using the Envision (Perkin Elmer) plate reader. Readings were normalized to DMSO only treated cells, and normalized activities were utilized for EC50 calculations using the dose-response log (inhibitor) vs. response-variable slope (four parameters) nonlinear regression feature available in GraphPad Prism 5.0 (or Dotmatics). For EC50 of >10 μM, the percent inhibition at 10 μM is provided.

SW480 colon cancer cells = test: Cell viability assay (CellTiter-Blue), SW480 cells; settings: Homo sapiens, 96 h, four days, CellTiter-Blue
Method: Representative compounds were screened using the following assay procedure to assess the effect on cell viability as described below.
Each compound was dissolved in DMSO as a 10 mM stock and used to prepare compound source plates. Serial dilution (1:3, 8-point dose-response curves from […]) and compound transfer was performed using the ECHO 550 (Labcyte, Sunnyvale, Calif.) into 96-well clear bottom, black-walled plates (Corning-Costar).
Approximately 2×10^3 SW480 colon cancer cells were seeded into each well and allowed to incubate in the presence or absence of compound for four days at 37° C./5% CO2. Eight replicates of DMSO-treated cells served as controls and cells treated with compound were performed in duplicate.
After incubation, 20 μL of CellTiter-Blue (Promega) was added to each well allowed to incubate for approximately 3 hours. This reagent was a buffered solution which contains resazurin, metabolically active cells were able to reduce rezarurin (blue) into resorufin (pink) which was highly fluorescent. This measured fluorescence was used as a readout for cell viability.
After incubation, the plates were read at Ex 560 nm Em 590 nm (Cytation 3, BioTek). Dose-response curves were generated and EC50 concentration values were calculated using non-linear regression curve fit in the GraphPad Prism (San Diego, Calif.) or Dotmatics' Studies Software (Bishops Stortford, UK). For EC50 of >10 μM, the percent inhibition at 10 μM is provided.

[2] = system: primary human fibroblasts derived from IPF patients (LL29 cells) treated with TGF-β1; test: Inhibition of fibrotic process, αSMA staining in TGF-β1 treated LL29 fibroblasts; settings: Fibroblast; for EC50: 96 h, TGF-β1 20 ng/mL, 4 days, % cells positive for αSMA
Text: Representative compounds were screened using primary human fibroblasts (derived from IPF patients) treated with TGF-β1 to determine their ability to inhibit the fibrotic process.
Primary human fibroblasts derived from IPF patients (LL29 cells) [^1Xiaoqiu Liu, et. al., “Fibrotic Lung Fibroblasts Show Blunted Inhibition by cAMP Due to Deficient cAMP Response Element-Binding Protein Phosphorylation”, Journal of Pharmacology and Experimental Therapeutics (2005), 315(2), 678-687; ^2Watts, K. L., et. al., “RhoA signaling modulates cyclin D1 expression in human lung fibroblasts; implications for idiopathic pulmonary fibrosis”, Respiratory Research (2006), 7(1), 88] were obtained from American Type Culture Collection (ATCC) and expanded in F12 medium supplemented with 15% Fetal Bovine Serum and Penicillin/Streptomycin.
Each compound was dissolved in DMSO as a 10 mM stock and used to prepare compound source plates. Serial dilution (1:2, 11-point dose-response curves from […] to […]) and compound transfer was performed using the ECHO 550 (Labcyte, Sunnyvale, Calif.) into 384-well clear bottom assay plates (Greiner Bio-One) with appropriate DMSO backfill for a final DMSO concentration of 0.1%. LL29 cells are plated at 1,500 cells/well in 80 μL/well F12 medium supplemented with 1% Fetal Bovine Serum. One hour after addition of the cells, TGF-β1 (Peprotech; 20 ng/mL) was added to the plates to induce fibrosis (ref. 1 and 2 above). Wells treated with TGF-β1 and containing DMSO were used as controls. Cells were incubated at 37° C. and 5% CO2 for 4 days. Following incubation for 4 days, SYTOX green nucleic acid stain (Life Technologies [Thermo Fisher Scientific]) was added to the wells at a final concentration of 1 μM and incubated at room temperature for 30 min. Cells were then fixed using 4% formaldehyde (Electron Microscopy Sciences), washed 3 times with PBS followed by blocking and permeabilization using 3% Bovine Serum Albumin (BSA; Sigma) and 0.3% Triton X-100 (Sigma) in PBS. Cells were then stained with antibody specific to α-smooth muscle actin (aSMA; Abcam) (ref. 1 and 2 above) in 3% Bovine Serum Albumin (BSA; Sigma) and 0.3% Triton X-100 (Sigma) in PBS, and incubated overnight at 4° C. Cells were then washed 3 times with PBS, followed by incubation with Alexa Flor-647 conjugated secondary antibody (Life Technologies [Thermo Fisher Scientific]) and DAPI at room temperature for 1 hour. Cells were then washed 3 times with PBS and plates were sealed for imaging. aSMA staining was imaged by excitation at 630 nm and emission at 665 nm and quantified using the Compartmental Analysis program on the CellInsight CX5 (Thermo Scientific). Dead or apoptotic cells were excluded from analysis based on positive SYTOX green staining. % of total cells positive for aSMA were counted in each well and normalized to the average of 11 wells treated with TGF-β1 on the same plate using Dotmatics' Studies Software. The normalized averages (fold change over untreated) of 3 replicate wells for each compound concentration were used to create dose-responses curves and EC50 values were calculated using non-linear regression curve fit in the Dotmatics' Studies Software. For EC50 of >10 μM, the percent inhibition at 10 μM is provided.

IL-6 = IL-6 inhibition in LPS-stimulated THP-1 cells (HTRF); settings: Homo sapiens; for EC50: LPS 500 ng/mL, 22 hours, IL6 HTRF; for inhibition at 10 µM: given for EC50 >10 μM, LPS, IL6, at 10 M [sic], read-out: percent inhibition at 10 M
Method: Human monocyte cell line (THP-1 cells; Catalog # TIB-202, ATCC, Manassas, Va.) were cultured in Roswell Park Memorial Institute (RPMI) 1640 Medium (Catalog #21870-100, Buffalo, N.Y.) with 1% L-glutamine, 1% HEPES, 1% Sodium Pyruvate, 2% Sodium Bicarbonate supplemented with 100 units/mL penicillin, 50 μg/mL streptomycin, 2-mercaptoethanol (0.05 mM) [basal medium] and 10% fetal bovine serum (Catalog #16140089, Life Technologies, Carlsbad, Calif.) at 37° C. and 5% CO2.
THP-1 cells were cultured in basal media with 1% FBS for 24 hours before the start of the assay. Each compound was dissolved in DMSO as a 10 mM stock and used to prepare compound source plates. Serial dilution (1:3, 10-point dose-response curves starting from 10 μM) and compound transfer was performed using the ECHO 550 (Labcyte, Sunnyvale, Calif.) into 384-well white low volume assay plates (Greiner Bio-One) with appropriate DMSO backfill for a final DMSO concentration of 0.1%. THP-1 cells were plated at 5000 cells/well in the 384-well plates and incubated at 37° C. for 2 h. 500 ng/mL of LPS was added after 2 hours and cells were incubated for another 22 hours at 37° C. Plates were spun in a centrifuge for 1 minute at […] and a mixture of anti-IL6 XL665, and anti-IL6 Cryptate diluted in reconstitution buffer (Cisbio Inc.) was added to each well. Following incubation for 3 hrs at room temperature, Homogeneous Time-Resolved Fluorescence (HTRF) was measured using the Envision (Perkin Elmer) at 665 nm and […]. The ratio of fluorescence at 665 nm to 620 nm was used as a readout for IL6 quantification. All samples were processed in duplicate. Readings were normalized to DMSO treated cells and normalized activities were utilized for EC50 calculations using the dose-response log (inhibitor) vs. response-variable slope (four parameters) nonlinear regression feature available in GraphPad Prism 5.0 (or Dotmatics). For EC50 of >10 μM, the percent inhibition at […] is provided.

Row | SMILES | EC50 [1] | EC50 (SW480 colon cancer cells) | EC50 [2] | EC50 (IL-6) | inhibition at 10 µM (IL-6) | inhibition at 10 µM ([2]; given for EC50 >10 μM, TGF-β1, αSMA, 10 μM, read-out: percent inhibition at 10 μM) | inhibition at 10 µM ([1]; given for EC50 >10 μM, 10 μM, read-out: percent inhibition at 10 μM)
1 | CC(C)(C)C(=O)Nc1cncc(-c2ccc3[nH]nc(-c4cc5c(-c6cccc(F)c6)cncc5[nH]4)c3n2)c1 [Compound 8, N-(5-(3-(4-(3-Fluorophenyl)-1H-pyrrolo[2,3-c]pyridin-2-yl)-1H-pyrazolo [4,3-b]pyridin-5-yl)pyridin-3-yl)pivalamide] | 1970 nM | 1210 nM | 2310 nM | 228 nM | – | – | –
2 | O=C(Nc1cncc(-c2ccc3[nH]nc(-c4cc5c(-c6cccc(F)c6)cncc5[nH]4)c3n2)c1)C1CCCCC1 [Compound 23, N-(5-(3-(4-(3-Fluorophenyl)-1H-pyrrolo[2,3-c]pyridin-2-yl)-1H-pyrazolo [4,3-b]pyridin-5-yl)pyridin-3-yl)cyclohexanecarboxamide] | 1460 nM | 1070 nM | 718 nM | > 10000 nM | 1% | – | –
3 | Fc1ccc(-c2cncc3[nH]c(-c4n[nH]c5ccc(-c6ccccn6)nc45)cc23)cc1 [Compound 56, 3-(4-(4-Fluorophenyl)-1H-pyrrolo[2,3-c]pyridin-2-yl)-5-(pyridin-2-yl)-1H-pyrazolo[4,3-b]pyridine] | 2320 nM | 1120 nM | 1300 nM | > 10000 nM | 32.6% | – | –
4 | CC(C)CC(=O)Nc1cncc(-c2ccc3[nH]nc(-c4cc5c(-c6ccccc6F)cncc5[nH]4)c3n2)c1 [Compound 58, N-(5-(3-(4-(2-Fluorophenyl)-1H-pyrrolo[2,3-c]pyridin-2-yl)-1H-pyrazolo [4,3-b]pyridin-5-yl)pyridin-3-yl)-3-methylbutanamide] | 702 nM | 413 nM | 697 nM | 85 nM | – | – | –
5 | O=C(Nc1cncc(-c2ccc3[nH]nc(-c4cc5c(-c6ccccc6F)cncc5[nH]4)c3n2)c1)C1CC1 [Compound 76, N-(5-(3-(4-(2-Fluorophenyl)-1H-pyrrolo[2,3-c]pyridin-2-yl)-1H-pyrazolo [4,3-b]pyridin-5-yl)pyridin-3-yl)cyclopropanecarboxamide] | 1420 nM | 897 nM | 2040 nM | 157 nM | – | – | –
6 | Fc1ccccc1-c1cncc2[nH]c(-c3n[nH]c4ccc(-c5cncc(CNCc6ccccc6)c5)nc34)cc12 [Compound 80, N-Benzyl-1-(5-(3-(4-(2-fluorophenyl)-1H-pyrrolo[2,3-c]pyridin-2-yl)-1H-pyrazolo[4,3-b]pyridin-5-yl)pyridin-3-yl)methanamine] | 3980 nM | 6720 nM | 4600 nM | 5790 nM | – | – | –
7 | CC(C)Nc1cncc(-c2ccc3[nH]nc(-c4cc5c(-c6cccnc6)cncc5[nH]4)c3n2)c1 [Compound 96, N-Isopropyl-5-(3-(4-(pyridin-3-yl)-1H-pyrrolo[2,3-c]pyridin-2-yl)-1H-pyrazolo[4,3-b]pyridin-5-yl)pyridin-3-amine] | 1730 nM | 1380 nM | > 10000 nM | 120 nM | – | 0% | –
8 | CCNCc1cncc(-c2ccc3[nH]nc(-c4cc5ccncc5[nH]4)c3n2)c1 [Compound 258, N-((5-(3-(1H-Pyrrolo[2,3-c]pyridin-2-yl)-1H-pyrazolo[4,3-b]pyridin-5-yl)pyridin-3-yl)methyl)ethanamine] | 8450 nM | 3580 nM | 6630 nM | 873 nM | – | – | –
9 | c1cc(-c2cncc3[nH]c(-c4n[nH]c5ccc(-c6cncc(CNCC7CCCC7)c6)nc45)cc23)co1 [Compound 333, 1-Cyclopentyl-N-((5-(3-(4-(furan-3-yl)-1H-pyrrolo[2,3-c]pyridin-2-yl)-1H-pyrazolo[4,3-b]pyridin-5-yl)pyridin-3-yl)methyl)methanamine] | > 10000 nM | 7840 nM | 1500 nM | 456 nM | – | – | 25.5%
